This note sets out measurements from patent publication US20130005747A1, “METHOD FOR SELECTING A CANCER THERAPY” (Cyclacel Limited, priority 2010, published 2013).

One may read the IC50 as the concentration that gives 50% inhibition.

One test concerns H292. Briefly: Cell line IC50 (Table 3). The class given is cell-based, human. The following applies: Lung.
In a further test the test system is H2052. The test is described as follows: Cell line IC50 (Table 3). The class given is cell-based, human. The following applies: Mesothelioma.
The next test deals with LoVo. Briefly: Cell line IC50 (Table 3). The class given is cell-based, human. The following applies: K-Ras G13D, Colon.
A further test has as its system NCI-H929. Briefly: Cell line IC50 (Table 3). Type of test: cell-based, human. The conditions noted are these: N-Ras, Myeloma.
The next test deals with H1650. The test is described as follows: Cell line IC50 (Table 3). The class given is cell-based, human. The conditions noted are these: Lung.
A further test has as its system Colo205. The test is described as follows: Cell line IC50 (Table 3). The class given is cell-based, human. The conditions noted are these: Colon.
The subject of another test is NCI-H460. The test is described as follows: Cell line IC50 (Table 3). The class given is cell-based, human. The following applies: K-Ras Q61H, Lung.
In another test the test system is H358. Briefly: Cell line IC50 (Table 3). Type of test: cell-based, human. The conditions noted are these: Lung.
The subject of a further test is MESSA. The test is described as follows: Cell line IC50 (Table 3). Type of test: cell-based, human. The conditions noted are these: Ras WT, sarcoma.
In the next test the test system is A549. The test is described as follows: Cell line IC50 (Table 3). The class given is cell-based, human. The conditions noted are these: K-Ras G12S, Lung.
Another test deals with MDA-MB-436. Briefly: Cell line IC50 (Table 3). Type of test: cell-based, human. The conditions noted are these: Ras WT, Breast.
The next test deals with cell lines of Table 3. The test is described as follows: Cell line panel of Table 3, summary over cell lines. Type of test: cell-based, human. The conditions noted are these: median over the cell lines of Table 3.
A further test concerns A2780. The test is described as follows: Cell line IC50 (Table 3). Type of test: cell-based, human. The following applies: Ras WT, Ovary.
The test system of the next test is MCF7. The test is described as follows: Cell line IC50 (Table 3). Type of test: cell-based, human. The conditions noted are these: Ras WT, Breast.
The next test deals with CDK. The test is described as follows: CDK inhibitory profile. Type of test: biochemical. The conditions noted are these: compared with roscovitine.
In a further test the test system is HT-29. The test is described as follows: Cell line IC50 (Table 3). The class given is cell-based. The following applies: Homo sapiens, Ras WT, Colon.
The next test deals with Saos-2. The test is described as follows: Cell line IC50 (Table 3). The conditions noted are these: Homo sapiens, Ras WT, Osteosarcoma. Type of test: cell-based.
The subject of the next test is LP-1. The test is described as follows: Cell line IC50 (Table 3). Type of test: cell-based. The following applies: Homo sapiens, Ras WT, Myeloma.
For a further test, the system named is HCT 116. The test is described as follows: Cell line IC50 (Table 3). The conditions noted are these: Homo sapiens, K-Ras G13D, Colon. The class given is cell-based.
The mark [1] stands for this setting: Homo sapiens, NCI-H2052, Ras WT.
The mark [2] stands for this setting: Homo sapiens, NCI-H1650, Ras WT.
The mark [3] stands for this setting: Homo sapiens, NCI-H358, K-Ras G12C.

SMILES strings stand for the structures.

With `CC[C@H](Nc1nc(NCc2cnc(C)cc2C)c2ncn(C(C)C)c2n1)[C@@H](C)O` [Compound A], the 50% inhibitory concentration (IC50) was 400 nM in the test on H292 (Ras WT); 300 nM with H2052 (Ras WT); 700 nM in the test on LoVo; 400 nM in the test with NCI-H929; 500 nM in the test with H1650 (Ras WT); 300 nM in the test on Colo205 (Ras WT). For the same compound, the IC50 in the test with NCI-H460 stood at 500 nM; in the test on H358 (K-Ras G12C), 200 nM; in the test on MESSA, 200 nM; in the test with A549, 200 nM; in the test with MDA-MB-436, 400 nM; in the test on cell lines of Table 3, 400 nM. The figures for the 50% inhibitory concentration (IC50) with A2780 and with MCF7 were 400 nM and 300 nM, respectively.
Turning to `CC[C@@H](Nc1nc(NCc2cccnc2)c2ncn(C(C)C)c2n1)C(C)(C)O` [Compound B, (3R)-3-{9-isopropyl-6-[(pyridin-3-ylmethyl)-amino]-9H-purin-2-ylamino}-2-methyl-pentan-2-ol], the IC50 in the test with H292 (Homo sapiens, NCI-H292, Ras WT) turned out to be 6600 nM; with H2052 (setting [1]) it was 5200 nM; in the test on LoVo (Homo sapiens), 4500 nM; in the test on NCI-H929 (Homo sapiens), 5200 nM; with H1650 (setting [2]), 6500 nM; in the test with HT-29, 4100 nM. Moreover, the half-maximal inhibitory concentration (IC50) in the test with Colo205 (Homo sapiens, COLO 205, Ras WT) was 4500 nM; in the test with NCI-H460 (Homo sapiens) it was 2800 nM; in the test with H358 (setting [3]), 2700 nM; with MESSA (Homo sapiens, MES-SA), 3600 nM; in the test on Saos-2, 5300 nM; in the test on A549 (Homo sapiens), 3000 nM. Also, the concentration for half-maximal inhibition (IC50) with MDA-MB-436 (Homo sapiens) came out at 6600 nM; with cell lines of Table 3 (Homo sapiens), 4500 nM; in the test on A2780 (Homo sapiens) it was 2600 nM; in the test with MCF7 (Homo sapiens) it was 3600 nM. For the same compound, in the test on CDK, the “CDK inhibitory profile (in words)” value is given as “very similar CDK inhibitory profiles to roscovitine”.
For `CC[C@H](Nc1nc(NCc2cccnc2)c2ncn(C(C)C)c2n1)C(C)(C)O` [Compound C, (3S)-3-{9-isopropyl-6-[(pyridin-3-ylmethyl)-amino]-9H-purin-2-ylamino}-2-methyl-pentan-2-ol], the half-maximal inhibitory concentration (IC50) in the test on H292 (Homo sapiens, NCI-H292, Ras WT) is 2300 nM; with H2052 (setting [1]), 2400 nM; with LoVo (Homo sapiens) it was 2200 nM; with NCI-H929 (Homo sapiens), 2400 nM; with H1650 (setting [2]), 3700 nM; with HT-29, 1700 nM. Further, the 50% inhibitory concentration (IC50) in the test with Colo205 (Homo sapiens, COLO 205, Ras WT) stood at 2300 nM; in the test on NCI-H460 (Homo sapiens) it was 2200 nM; in the test on H358 (setting [3]) it was 800 nM; in the test on LP-1, 1600 nM; in the test on HCT 116, 1600 nM; with MESSA (Homo sapiens, MES-SA), 1600 nM. The concentration for half-maximal inhibition (IC50) with Saos-2 was found to be 2500 nM; with A549 (Homo sapiens), 1600 nM; with MDA-MB-436 (Homo sapiens), 3400 nM; in the test with cell lines of Table 3 (Homo sapiens) it was 2200 nM; in the test on A2780 (Homo sapiens) it was 1100 nM; in the test with MCF7 (Homo sapiens), 1600 nM. Besides, the “CDK inhibitory profile (in words)” value with CDK is listed as “very similar CDK inhibitory profiles to roscovitine”.
In the case of `CC[C@H](Nc1nc(NCc2cccnc2)c2ncn(C(C)C)c2n1)[C@@H](C)O` [Compound D, (2R,3S)-3-({9-isopropyl-6-[(pyridin-3-ylmethyl)amino]-9H-purin-2-yl}amino)pentan-2-ol], the concentration for half-maximal inhibition (IC50) was 900 nM with H292 (Homo sapiens, NCI-H292, Ras WT); 900 nM in the test on H2052 (setting [1]); 800 nM with LoVo (Homo sapiens); 800 nM in the test on NCI-H929 (Homo sapiens); 1200 nM in the test on H1650 (setting [2]); 1200 nM with HT-29. The IC50 was determined as 800 nM in the test with Colo205 (Homo sapiens, COLO 205, Ras WT); 700 nM with NCI-H460 (Homo sapiens); 300 nM with H358 (setting [3]); 500 nM in the test on LP-1; 400 nM in the test with HCT 116; 500 nM in the test on MESSA (Homo sapiens, MES-SA). The IC50 in the test with Saos-2 came to 1400 nM; in the test with A549 (Homo sapiens), 500 nM; in the test on MDA-MB-436 (Homo sapiens), 1000 nM; in the test on cell lines of Table 3 (Homo sapiens), 800 nM; with A2780 (Homo sapiens) it was 400 nM; in the test on MCF7 (Homo sapiens), 400 nM. The “CDK inhibitory profile (in words)” value in the test with CDK is on record as “very similar CDK inhibitory profiles to roscovitine”.
